Laboratory results reported in paper PMC9511441, “Semisynthetic teicoplanin derivatives with dual antimicrobial activity against SARS-CoV-2 and multiresistant bacteria” (Scientific Reports, 2022).
≈ marks a conversion by molar mass, not a printed value. Like-named read-outs stand apart in the source and are kept apart here.

Assays:
[1] = Cytotoxicity in mock-infected HEL cells (MTS); type: cell-based, human; conditions: human
[2] = tested on: HCoV-229E; assay: CPE reduction assay, HCoV-229E in HEL cells; type: cell-based; conditions: Human coronavirus 229E, MTS, mean of 2–3 tests
[3] = tested on: E. faecium; assay: microbe, parasite or virus in culture; type: cell-based; conditions: Enterococcus faecium
From the text: (§1) We determined the minimal inhibitory concentrations (MIC) of the teicoplanin conjugates for a large panel of Gram-positive bacterial strains, using vancomycin, unmodified teicoplanin, dalbavancin and oritavancin as reference compounds. […] The bacterial strains (see Suppl. Table S5 for all details) were selected to achieve maximum diversity of multidrug-resistance and include strains with known mechanisms of resistance to glycopeptides in clinical use. The S. epidermidis and S. haemolyticus strains resistant to dalbavancin and oritavancin were obtained in vitro from clinical isolates sensitive to the glycopeptide antibiotics.

[4] = tested on: S. epidermidis; assay: microbe, parasite or virus in culture; type: cell-based; conditions: Staphylococcus epidermidis
From the text: as §1

[5] = tested on: S. aureus ATCC29213; assay: Fluorescent competition assay, release of fluorescent vancomycin; conditions: cells saturated with FL-VAN, Fig. 7 left panel
[6] = tested on: S. haemolyticus; assay: MIC, broth microdilution; type: cell-based; conditions: Staphylococcus haemolyticus
From the text: as §1

[7] = tested on: S.pyogenes; assay: MIC, broth microdilution; type: cell-based; conditions: Streptococcus pyogenes
From the text: as §1

[8] = tested on: S. aureus; assay: MIC, broth microdilution; type: cell-based; conditions: Staphylococcus aureus
From the text: as §1

[9] = tested on: E. faecalis; assay: MIC, broth microdilution; type: cell-based; conditions: Enterococcus faecalis
From the text: as §1

[10] = tested on: SARS-CoV-2; assay: microbe, parasite or virus in culture; type: cell-based; conditions: Severe acute respiratory syndrome coronavirus 2, Vero C1008, 72 h; Vero E6 cells, three days, XTT; read-out: EC50, CPE reduction, SARS-CoV-2 in Vero E6 cells
[11] = tested on: SARS-CoV-2; assay: microbe, parasite or virus in culture; type: cell-based; conditions: Severe acute respiratory syndrome coronavirus 2, 72 h; Calu-3 cells, three days, XTT; read-out: EC50, CPE reduction, SARS-CoV-2 in Calu-3 cells
[12] = in vitro; conditions: human
[13] = Cytotoxicity in mock-infected VeroE6 cells (XTT); type: cell-based, African green monkey; conditions: African green monkey; mock-infected Vero E6 cells, three days, XTT

N#C[C@@]1(c2ccc3c(N)ncnn23)O[C@H](CO)[C@@H](O)[C@H]1O [GS-441524, reference compound]
CC50 at 5 days [1]: > 40000 nM | EC50 [2]: 3000 nM

CN[C@H](CC(C)C)C(=O)N[C@H]1C(=O)N[C@@H](CC(N)=O)C(=O)N[C@H]2C(=O)N[C@H]3C(=O)N[C@H](C(=O)N[C@H](C(=O)O)c4cc(O)cc(O)c4-c4cc3ccc4O)[C@H](O[C@H]3C[C@](C)(N)[C@@H](O)[C@H](C)O3)c3ccc(c(Cl)c3)Oc3cc2cc(c3O[C@@H]2O[C@H](CO)[C@@H](O)[C@H](O)[C@H]2O[C@H]2C[C@](C)(NCc3ccc(-c4ccc(Cl)cc4)cc3)[C@@H](O)[C@H](C)O2)Oc2ccc(cc2Cl)[C@H]1O [ORI, oritavancin, reference compound]
MIC ([3]; read-out: Average MIC value, E. faecium VAN^R,TEI^R/VanA, 8 strains): 0.12 µg/mL (≈ 0.0669 µM) | MIC ([3]; read-out: Average MIC value, E. faecium VAN^S, TEI^S, 1 strain): 0.0625 µg/mL (≈ 0.0349 µM) | MIC ([3]; read-out: MIC value, E.faecium E335, VAN,TEI,LNZ/VanA): 0.125 µg/mL (≈ 0.0697 µM) | MIC ([3]; read-out: MIC value, E.faecium E355, VAN,TEI,LNZ/VanA): 0.0625 µg/mL (≈ 0.0349 µM) | MIC ([3]; read-out: MIC value, E.faecium E832, VAN,TEI,LNZ/VanA): 0.125 µg/mL (≈ 0.0697 µM) | MIC ([3]; read-out: MIC value, E.faecium E854, VAN,TEI,LNZ/VanA): 0.0625 µg/mL (≈ 0.0349 µM) | MIC ([3]; read-out: MIC value, E.faecium E859, VAN,TEI,LNZ/VanA): 0.0625 µg/mL (≈ 0.0349 µM) | MIC ([3]; read-out: MIC value, E.faecium E1114, VAN,TEI,LNZ/VanA): 0.25 µg/mL (≈ 0.139 µM) | MIC ([3]; read-out: MIC value, E.faecium E1131, VAN,TEI,LNZ/VanA): 0.125 µg/mL (≈ 0.0697 µM) | MIC ([3]; read-out: MIC value, E.faecium E1132, VAN,TEI,LNZ/VanA): 0.125 µg/mL (≈ 0.0697 µM) | MIC ([3]; read-out: MIC value, E.faecium TX0016): 0.0625 µg/mL (≈ 0.0349 µM) | MIC ([4]; read-out: Average MIC value, S. epidermidis mecA, 6 strains): 1.2 µg/mL (≈ 0.669 µM) | MIC ([4]; read-out: MIC value, S.epidermidis ORI_R1, mecA): 4 µg/mL (≈ 2.23 µM) | MIC ([4]; read-out: MIC value, S.epidermidis ORI_R2, mecA): 0.5 µg/mL (≈ 0.279 µM) | MIC ([4]; read-out: MIC value, S.epidermidis ORI_R3, mecA): 2 µg/mL (≈ 1.12 µM) | MIC ([4]; read-out: MIC value, S.epidermidis ORI_R4, mecA): 0.5 µg/mL (≈ 0.279 µM) | MIC ([4]; read-out: MIC value, S.epidermidis TEI_R1, mecA): 0.125 µg/mL (≈ 0.0697 µM) | MIC ([4]; read-out: MIC value, S.epidermidis TEI_R2, mecA): 0.125 µg/mL (≈ 0.0697 µM) | Outcompeting fluorescent vancomycin from S. aureus (in words) [5]: less pronounced | MIC ([6]; S. haemolyticus mecA, 6 strains, read-out: Average MIC value): 0.24 µg/mL (≈ 0.134 µM) | MIC ([6]; S.haemolyticus DALB_R1, mecA, read-out: MIC value): 0.25 µg/mL (≈ 0.139 µM) | MIC ([6]; S.haemolyticus DALB_R2, mecA, read-out: MIC value): 0.25 µg/mL (≈ 0.139 µM) | MIC ([6]; S.haemolyticus DALB_R3, mecA, read-out: MIC value): 0.25 µg/mL (≈ 0.139 µM) | MIC ([6]; S.haemolyticus DALB_R4, mecA, read-out: MIC value): 0.0625 µg/mL (≈ 0.0349 µM) | MIC ([6]; S.haemolyticus DALB_R5, mecA, read-out: MIC value): 0.125 µg/mL (≈ 0.0697 µM) | MIC ([6]; S.haemolyticus ORI_R1, mecA, read-out: MIC value): 0.5 µg/mL (≈ 0.279 µM) | MIC ([7]; read-out: MIC value, S.pyogenes H232): 0.125 µg/mL (≈ 0.0697 µM) | MIC ([7]; read-out: MIC value, S.pyogenes H550): 0.0625 µg/mL (≈ 0.0349 µM) | MIC ([7]; read-out: MIC value, S.pyogenes H578): 0.0625 µg/mL (≈ 0.0349 µM) | MIC ([8]; ATCC 29213 / MSSA, read-out: MIC value, S. aureus ATCC29213, MSSA): 0.125 µg/mL (≈ 0.0697 µM) | MIC ([8]; MRSA / USA300, read-out: MIC value, S. aureus USA300, CA-MRSA): 0.0625 µg/mL (≈ 0.0349 µM) | MIC ([8]; MRSA, read-out: Average MIC value, S. aureus CA-MRSA, 1 strain): 0.0625 µg/mL (≈ 0.0349 µM) | MIC ([8]; MRSA, read-out: Average MIC value, S. aureus MRSA, 7 strains): 0.14 µg/mL (≈ 0.0781 µM) | MIC ([8]; MRSA, read-out: MIC value, S. aureus 73OL, MRSA): 0.125 µg/mL (≈ 0.0697 µM) | MIC ([8]; MRSA, read-out: MIC value, S. aureus 214OL, MRSA): 0.125 µg/mL (≈ 0.0697 µM) | MIC ([8]; MRSA, read-out: MIC value, S. aureus 1041OL, MRSA): 0.125 µg/mL (≈ 0.0697 µM) | MIC ([8]; MRSA, read-out: MIC value, S. aureus A6918, MRSA): 0.125 µg/mL (≈ 0.0697 µM) | MIC ([8]; MRSA, read-out: MIC value, S. aureus A6919, MRSA): 0.125 µg/mL (≈ 0.0697 µM) | MIC ([8]; MRSA, read-out: MIC value, S. aureus Mu50, MRSA): 0.25 µg/mL (≈ 0.139 µM) | MIC ([8]; MRSA, read-out: MIC value, S. aureus N315, MRSA): 0.125 µg/mL (≈ 0.0697 µM) | MIC ([8]; MSSA / NEWMAN, read-out: MIC value, S. aureus Newman, MSSA): 0.0625 µg/mL (≈ 0.0349 µM) | MIC ([8]; MSSA, read-out: Average MIC value, S. aureus MSSA, 4 strains): 0.078 µg/mL (≈ 0.0435 µM) | MIC ([8]; MSSA, read-out: MIC value, S. aureus MSSA476, MSSA): 0.0625 µg/mL (≈ 0.0349 µM) | MIC ([8]; MSSA, read-out: MIC value, S. aureus SA564, MSSA): 0.0625 µg/mL (≈ 0.0349 µM) | MIC ([9]; read-out: Average MIC value, E. faecalis VAN^R,TEI^R/VanA, 1 strain): 0.125 µg/mL (≈ 0.0697 µM) | MIC ([9]; read-out: Average MIC value, E. faecalis VAN^S, TEI^S, 2 strains): 0.0625 µg/mL (≈ 0.0349 µM) | MIC ([9]; read-out: MIC value, E.faecalis JH2-2): 0.0625 µg/mL (≈ 0.0349 µM) | MIC ([9]; read-out: MIC value, E.faecalis OG1RF): 0.0625 µg/mL (≈ 0.0349 µM) | MIC ([9]; read-out: MIC value, E.faecalis V583, VAN,TEI/VanA): 0.125 µg/mL (≈ 0.0697 µM)

CCC(CC)COC(=O)[C@H](C)N[P@](=O)(OC[C@H]1O[C@@](C#N)(c2ccc3c(N)ncnn23)[C@H](O)[C@@H]1O)Oc1ccccc1 [Remdesivir, remdesivir, reference compound]
EC50 [10]: 2500 ± 200 nM | EC50 [11]: 300 ± 30 nM | CC50 [12]: > 50000 nM | CC50 [13]: > 100000 nM
